Laboratory results published in the supplement of paper PMC11451515.

System: SEM cells
Test: cell viability relative to DMSO control; higher = less cytotoxic
Conditions: 48 h
Procedure, shortened: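 NOMO1 or SEM (500 cells/well) or P12-Ichikawa (1000 cells/well) leukemia cells were adapted for at least four passages in each medium. They were seeded in 1536-well plates (5 μl) and pin-dosed with library compounds in DMSO over an 11-point threefold series, 47 μM to 0.79 nM. CellTiter-Glo One luminescence was read after 48 h at 37°C. Viability is the per-plate percentage relative to DMSO wells, with cell-free wells as background.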

[1] = HPLM + 10% dialyzed FBS, 0.000781 µM
[2] = HPLM + 10% dialyzed FBS, 0.00234 µM
[3] = HPLM + 10% dialyzed FBS, 0.00702 µM
[4] = HPLM + 10% dialyzed FBS, 0.0211 µM
[5] = HPLM + 10% dialyzed FBS, 0.0632 µM
[6] = HPLM + 10% dialyzed FBS, 0.19 µM
[7] = HPLM + 10% dialyzed FBS, 0.569 µM
[8] = HPLM + 10% dialyzed FBS, 1.71 µM
[9] = HPLM + 10% dialyzed FBS, 5.12 µM
[10] = HPLM + 10% dialyzed FBS, 15.4 µM
[11] = HPLM + 10% dialyzed FBS, 46.1 µM
[12] = RPMI 5 mM glucose + 10% FBS, 0.000781 µM
[13] = RPMI 5 mM glucose + 10% FBS, 0.00234 µM
[14] = RPMI 5 mM glucose + 10% FBS, 0.00702 µM
[15] = RPMI 5 mM glucose + 10% FBS, 0.0211 µM
[16] = RPMI 5 mM glucose + 10% FBS, 0.0632 µM
[17] = RPMI 5 mM glucose + 10% FBS, 0.19 µM
[18] = RPMI 5 mM glucose + 10% FBS, 0.569 µM
[19] = RPMI 5 mM glucose + 10% FBS, 1.71 µM
[20] = RPMI 5 mM glucose + 10% FBS, 5.12 µM
[21] = RPMI 5 mM glucose + 10% FBS, 15.4 µM
[22] = RPMI 5 mM glucose + 10% FBS, 46.1 µM
[23] = RPMI 5 mM glucose + 10% dialyzed FBS, 0.000781 µM
[24] = RPMI 5 mM glucose + 10% dialyzed FBS, 0.00234 µM
[25] = RPMI 5 mM glucose + 10% dialyzed FBS, 0.00702 µM
[26] = RPMI 5 mM glucose + 10% dialyzed FBS, 0.0211 µM
[27] = RPMI 5 mM glucose + 10% dialyzed FBS, 0.0632 µM
[28] = RPMI 5 mM glucose + 10% dialyzed FBS, 0.19 µM
[29] = RPMI 5 mM glucose + 10% dialyzed FBS, 0.569 µM
[30] = RPMI 5 mM glucose + 10% dialyzed FBS, 1.71 µM
[31] = RPMI 5 mM glucose + 10% dialyzed FBS, 5.12 µM
[32] = RPMI 5 mM glucose + 10% dialyzed FBS, 15.4 µM
[33] = RPMI 5 mM glucose + 10% dialyzed FBS, 46.1 µM

Compound | cell viability [1] [%] | cell viability [2] [%] | cell viability [3] [%] | cell viability [4] [%] | cell viability [5] [%] | cell viability [6] [%] | cell viability [7] [%] | cell viability [8] [%] | cell viability [9] [%] | cell viability [10] [%] | cell viability [11] [%] | cell viability [12] [%] | cell viability [13] [%] | cell viability [14] [%] | cell viability [15] [%] | cell viability [16] [%] | cell viability [17] [%] | cell viability [18] [%] | cell viability [19] [%] | cell viability [20] [%] | cell viability [21] [%] | cell viability [22] [%] | cell viability [23] [%] | cell viability [24] [%] | cell viability [25] [%] | cell viability [26] [%] | cell viability [27] [%] | cell viability [28] [%] | cell viability [29] [%] | cell viability [30] [%] | cell viability [31] [%] | cell viability [32] [%] | cell viability [33] [%]
COc1ccc2c(c1)[C@]13CCCCC1C(C2)N(C)CC3 (stereo not given in full) | 102 | 116 | 113 | 106 | 116 | 112 | 103 | 100 | 128 | 111 | 129 | 106 | 105 | 115 | 115 | 111 | 126 | 110 | 113 | 126 | 126 | 123 | 101 | 103 | 106 | 114 | 108 | 114 | 118 | 109 | 117 | 108 | 114
CCCCN(CCCC)CC(O)c1cc(Cl)cc2c1-c1ccc(Cl)cc1/C2=C/c1ccc(Cl)cc1 (stereo not given) | 93.1 | 95.5 | 93.1 | 108 | 99 | 107 | 111 | 105 | 109 | 104 | 106 | 80.9 | 95.7 | 85.6 | 95.7 | 95.1 | 98.4 | 94.6 | 89.9 | 98.6 | 91.2 | 78.9 | 88.9 | 94.4 | 89.3 | 89.6 | 78.9 | 94.4 | 94.5 | 97.7 | 101 | 80.5 | 91.3
CN1CCCN(CC1)C2=CC=C3C(=O)\C(=C/4SC5=C(C=CC=C5)N4C3=N2)C(=O)NCC6=CN=C(C)C=N6 | 110 | 102 | 114 | 91.7 | 97.9 | 103 | 82.2 | 88.1 | 81.2 | 73.6 | 41.6 |  |  |  |  |  |  |  |  |  |  |  | 89.6 | 93.9 | 97.5 | 92.7 | 98.1 | 79.5 | 68.2 | 71.3 | 70.5 | 56.3 | 33.1
COc1c(C)c2c(c(O)c1C/C=C(\C)CCC(=O)O)C(=O)OC2 | 92.9 | 104 | 104 | 111 | 113 | 100 | 120 | 111 | 97 | 61.2 | 33.3 | 102 | 105 | 114 | 109 | 113 | 102 | 118 | 98.2 | 77 | 48.1 | 29.9 | 102 | 104 | 115 | 81.9 | 114 | 108 | 100 | 116 | 108 | 64.8 | 45.6
Nc1ccc([S+](=O)([O-])Nc2ccnn2-c2ccccc2)cc1 | 76.6 | 89.9 | 80.9 | 97.8 | 87.8 | 98.8 | 109 | 95.5 | 94.8 | 93.8 | 93 | 89.4 | 92.8 | 105 | 102 | 88.8 | 98.2 | 114 | 102 | 89 | 96.2 | 116 | 95.1 | 89.5 | 104 | 86.2 | 97.5 | 88 | 107 | 94.8 | 115 | 106 | 104
CCCNC(=O)Nc1ccc(Oc2ncnc3cc(OC)c(OC)cc23)cc1Cl | 101 | 93.5 | 108 | 104 | 102 | 101 | 89.8 | 98.1 | 81 | 80.4 | 47.6 | 118 | 125 | 125 | 146 | 117 | 104 | 103 | 98 | 88.2 | 92.1 | 57.7 | 94 | 109 | 104 | 113 | 90.7 | 98.5 | 92.8 | 78.9 | 73.3 | 75.5 | 41.7
CN(C)CC(C)(C)CNc1nn2c(-c3ccccc3)nnc2cc1C1CCC1 | 79.6 | 98.8 | 100 | 98 | 92.1 | 114 | 5.79 | 101 | 92.3 | 82.7 | 62.4 | 92.9 | 116 | 104 | 127 | 110 | 125 | 6.41 | 106 | 103 | 81.1 | 73.1 | 68.1 | 123 | 101 | 113 | 105 | 110 | 5.36 | 102 | 106 | 71.8 | 77.8
CC12CC3CC(C)(C1)CC(N)(C3)C2 | 89.4 | 107 | 93.2 | 105 | 96.7 | 99.4 | 127 | 126 | 103 | 114 | 105 | 106 | 94.4 | 105 | 109 | 110 | 106 | 122 | 114 | 133 | 123 | 131 | 84.3 | 86.8 | 88.6 | 116 | 102 | 104 | 110 | 103 | 101 | 95.5 | 104
COc1cc2c(cc1OC)CN(CCc1ccc(NC(=O)c3cc(OC)c(OC)cc3NC(=O)c3cnc4ccccc4c3)cc1)CC2 | 116 | 115 | 116 | 123 | 111 | 110 | 123 | 120 | 101 | 69 | 79.6 |  |  |  |  |  |  |  |  |  |  |  | 115 | 123 | 114 | 108 | 122 | 123 | 121 | 132 | 103 | 59.9 | 47.9
